According to patent US20240002375A1, “2-(INDAZOL-5-YL)-6-(PIPERIDIN-4-YL)-1,7-NAPHTHYRIDINE DERIVATIVES AND RELATED COMPOUNDS AS MODULATORS FOR SPLICING NUCLEIC ACIDS AND FOR THE TRE” (REMIX THERAPEUTICS INC., priority 2020, published 2024):

How the values were obtained:
Format in all cases: cell-based
[1] = system: SMN2 CJ mRNA; assay: Gene panel canonical junction qPCR splicing assay, SMN2; conditions: Table 4, read-out: SMN2 IC50 (decrease in CJ mRNA levels)
Description: (§1) Compounds described herein were used to modulate RNA transcript abundance in cells. The expression of a target mRNA was measured by detecting the formation of an exon-exon junction in the canonical transcript (CJ). A compound mediated exon-inclusion event was detected by observing an increase in formation of a new junction with an alternative exon (AJ). Real-time qPCR assays were used to detect these splicing switches and interrogate the potency of various compounds towards different target genes. A high-throughput real time quantitative PCR (RT-qPCR) assay was developed to measure these two isoforms of the mRNA (CJ and AJ) for an exemplary gene, HTT, together with a control housekeeping gene, GAPDH or GUSB or PPIA, used for normalization. Briefly, the A673 or K562 cell line was treated with various compounds described herein (e.g., compounds of Formula (I) or (II)). After treatment, the levels of the HTT mRNA targets were determined from each sample of cell lysate by cDNA synthesis followed by qPCR. The data analysis was performed by first determining the ΔCt vs the housekeeper gene. This ΔCt was then normalized against the DMSO control (ΔΔCt) and converted to RQ (relative quantification) using the 2^(−ΔΔCt) equation. The RQ were then converted to a percentage response by arbitrarily setting an assay window of 3.5 ΔCt for HTT-CJ and an assay window of 9 ΔCt for HTT-AJ. […] The percentage response was then fitted to the 4 parametric logistic equation to evaluate the concentration dependence of compound treatment. The increase in AJ mRNA is reported as AC50 (compound concentration having 50% response in AJ increase) while the decrease in CJ mRNA levels is reported as IC50 (compound concentration having 50% response in CJ decrease). Additional studies were carried out for a larger panel of genes using the protocol provided above. The junction between flanking upstream and downstream exons was used to design canonical junction qPCR assays. At least one of the forward primer, reverse primer or the CY5-labeled 5′ nuclease probe (with 3′ quencher such as ZEN/Iowa Black FQ) was designed to overlap with the exon junction to capture the CJ mRNA transcript. BLAST was used to confirm the specificity of the probeset and parameters such as melting temperature, GC content, amplicon size, and primer dimer formation are considered during their design. Data for the decrease in CJ mRNA levels for three exemplary genes (HTT, SMN2, and Target C) analyzed in this panel are reported as IC50 (compound concentration having 50% response in CJ decrease).

[2] = system: HTT mRNA; assay: Splicing assay (RT-qPCR) of HTT mRNA alternative junction (AJ) and canonical junction (CJ); conditions: A673 or K562 cells, 24 hours; for IC50: decrease in CJ mRNA, read-out: HTT CJ IC50; for AC50: increase in AJ mRNA, read-out: HTT AJ AC50
Description: Compounds described herein were used to modulate RNA transcript abundance in cells. The expression of a target mRNA was measured by detecting the formation of an exon-exon junction in the canonical transcript (CJ). A compound mediated exon-inclusion event was detected by observing an increase in formation of a new junction with an alternative exon (AJ). Real-time qPCR assays were used to detect these splicing switches and interrogate the potency of various compounds towards different target genes. A high-throughput real time quantitative PCR (RT-qPCR) assay was developed to measure these two isoforms of the mRNA (CJ and AJ) for an exemplary gene, HTT, together with a control housekeeping gene, GAPDH or GUSB or PPIA, used for normalization. Briefly, the A673 or K562 cell line was treated with various compounds described herein (e.g., compounds of Formula (I) or (II)). After treatment, the levels of the HTT mRNA targets were determined from each sample of cell lysate by cDNA synthesis followed by qPCR.
Materials: • Cells-to-CT 1-step kit: ThermoFisher A25602, Cells-to-CT lysis reagent: ThermoFisher 4391851C, TagMan™ Fast Virus 1-Step Master Mix: ThermoFisher 4444436 • GAPDH: VIC-PL, ThermoFisher 4326317E (Assay: Hs99999905_ml)—used for K562/suspension cell lines • GUSB: VIC-PL, ThermoFisher 4326320E (Assay: Hs99999908 ml)—used for K562/suspension cell lines • PPIA: VIC-PL, ThermoFisher 4326316E (Assay: Hs99999904 ml)—used for A673/adherent cell lines
The A673 cell line was cultured in DMEM with 10% FBS. Cells were diluted with full growth media and plated in a 96-well plate (15,000 cells in 100 ul media per well). The plate was incubated at 37° C. with 5% CO2 for 24 hours to allow cells to adhere. An 11-point 3-fold serial dilution of the compounds was made in DMSO then diluted in media in an intermediate plate. Compounds were transferred from the intermediate plate to the cell plate with the top dose at a final concentration of 10 uM in the well. Final DMSO concentration was kept at or below 0.25%. The cell plate was returned to the incubator at 37° C. with 5% CO2 for an additional 24 hours.
The K562 cell line was cultured in IMDM with 10% FBS. For K562, cells were diluted with full growth media and plated in either a 96-well plate (50,000 cells in 50 uL media per well) or a 384-well plate (8,000-40,000 cells in 45 uL media per well). An 11-point 3-fold serial dilution of the compounds were made in DMSO then diluted in media in an intermediate plate. Compound was transferred from the intermediate plate to the cell plate with the top dose at a final concentration of 10 uM in the well. Final DMSO concentration was kept at or below 0.25%. Final volume was 100 uL for 96-well plate and 50 uL for 384-well plate. The cell plate was then placed in an incubator at 37° C. with 5% CO2 for 24 hours.
The cells were then gently washed with 50 uL-100 uL cold PBS before proceeding to addition of lysis buffer. 30 uL-50 uL of room temperature lysis buffer with DNAse I (and optionally RNAsin) was added to each well. Cells were shaken/mixed thoroughly at room temperature for 5-10 minutes for lysis to take place and then 3 uL-5 uL of room temperature stop solution was added and wells were shaken/mixed again. After 2-5 minutes, the cell lysate plate was transferred to ice for RT-qPCR reaction setup. The lysates could also be frozen at −80° C. for later use.
In some cases, a direct lysis buffer was used. An appropriate volume of 3X lysis buffer (10 mM Tris, 150 mM NaCl, 1.5%-2.5% Igepal and 0.1-1 U/uL RNAsin, pH 7.4) was directly added to either K562 or A673 cells in media and mixed by pipetting 3 times. The plates were then incubated at room temperature with shaking/rocking for 20-50 minutes to allow for lysis to take place. After this time, the cell lysate plate was transferred to ice to set up for the RT-qPCR reactions. The lysates could also be frozen at −80° C. for later use. […]

[3] = system: HTT CJ mRNA; assay: Gene panel canonical junction qPCR splicing assay, HTT; conditions: Table 4, read-out: HTT IC50 (decrease in CJ mRNA levels)
Description: as §1

[4] = system: Target C CJ mRNA; assay: Gene panel canonical junction qPCR splicing assay, Target C; conditions: Table 4, read-out: Target C IC50 (decrease in CJ mRNA levels)
Description: as §1

IC50 [1] [µM] | IC50 [2] [µM] | IC50 [3] [µM] | IC50 [4] [µM] | SMILES | AC50 [2] [µM]
0.1 to 1 | 1 to 10 | 1 to 10 | 1 to 10 | Cn1cc2c(O)c(-c3cc4ccc(C5CCNCC5)nc4cn3)ccc2n1 [Compound 106, 2-methyl-5-[2-(piperidin-4-yl)-1,7-naphthyridin-6-yl]indazol-4-ol] | 1 to 10
< 0.1 | < 0.1 | < 0.1 | < 0.1 | Cc1nc2c(F)c(O)c(-c3ccc4nc(N5CC[C@@H](NC(C)(C)C)C5)ccc4n3)cc2o1 (single isomer, unassigned) [Compound 256, 6-{6-[3-(tert-butylamino)pyrrolidin-1-yl]-1,5-naphthyridin-2-yl}-4-fluoro-2-methyl-1,3-benzoxazol-5-ol] | < 0.1
< 0.1 | < 0.1 | < 0.1 | < 0.1 | Cn1cc2cc(-c3ccc4nc(N5CC[C@H](NCC6CC6)C5)ccc4n3)c(O)cc2n1 [Compound 194] | < 0.1
< 0.1 | < 0.1 | < 0.1 | < 0.1 | Cc1c(O)c(-c2ccc3nc(N4CCC(NC5(C)CC5)C4)ccc3n2)cc2cn(C)nc12 (racemic) [Compound 224, 2,7-dimethyl-5-(6-{3-[(1-methylcyclopropyl)amino]pyrrolidin-1-yl}-1,5-naphthyridin-2-yl) indazol-6-ol] | < 0.1
> 10 | > 10 | > 10 | > 10 | CN1CCCC2(CCN2c2ccc3nc(-c4cc5cn(C)nc5cc4O)ccc3n2)C1 (stereo not shown) [Compound 192, 2-methyl-5-(6-{6-methyl-1,6-diazaspiro[3.5]nonan-1-yl}-1,5-naphthyridin-2-yl) indazol-6-ol] | > 10
< 0.1 | 0.1 to 1 | 0.1 to 1 | 1 to 10 | Cn1cc2cc(-c3ccc4nc(N5CC[C@]67CCN[C@H]6CC[C@H]57)ccc4n3)c(O)cc2n1 [Compound 160, 5-{6-[(1R,55,85)-4,9-diazatricyclo[6.3.0.0^{1,5}]undecan-4-yl]-1,5-naphthyridin-2-yl}-2-methylindazol-6-ol] | 0.1 to 1
< 0.1 | < 0.1 | < 0.1 | < 0.1 | Cc1nc2cc(O)c(-c3ccc4nc(N5CCC(NC(C)(C)C)C5)ccc4n3)cc2o1 (stereo not shown) [Compound 175, 6-{6-[3-(tert-butylamino)pyrrolidin-1-yl]-1,5-naphthyridin-2-yl}-2-methyl-1,3-benzoxazol-5-ol] | < 0.1
< 0.1 | < 0.1 | < 0.1 | 0.1 to 1 | Cn1cc2cc(-c3ccc4nc(N5CC[C@@H](NC6CCC6)C5)ccc4n3)c(O)cc2n1 [Compound 157] | < 0.1
> 10 | > 10 | > 10 | > 10 | CC(C)(C)NC1CCN(c2ccc3nc(-c4cc5cnccc5cc4O)ccc3n2)C1 (stereo not shown) [Compound 166, 7-{6-[3-(tert-butylamino)pyrrolidin-1-yl]-1,5-naphthyridin-2-yl}isoquinolin-6-ol] | > 10
< 0.1 | < 0.1 | < 0.1 | < 0.1 | Cn1cc2cc(-c3ccc4nc(N5CC[C@@H](NC6(C)CC6)C5)ccc4n3)c(O)cc2n1 (single isomer, unassigned) [Compound 220] | < 0.1
< 0.1 | < 0.1 | < 0.1 | < 0.1 | Cc1nc2cc(O)c(-c3ccc4nc(N5CC[C@H](NC(C)(C)C)C5)ccc4n3)cc2o1 [Compound 209] | < 0.1
> 10 | < 0.1 | < 0.1 | < 0.1 | Cn1cc2cc(-c3ccc4nc(N5CCC(NC(C)(C)C)C5)ccc4n3)c(O)c(F)c2n1 (stereo not shown) [Compound 202] | < 0.1
1 to 10 | 1 to 10 | 1 to 10 | 1 to 10 | Cn1cc2nc(-c3ccc4nc(C5CCNCC5)ccc4n3)c(F)cc2n1 [Compound 205, 2-{6-fluoro-2-methylpyrazolo[4,3-b]pyridin-5-yl}-6-(piperidin-4-yl)-1,5-naphthyridine] | 1 to 10
< 0.1 | 1 to 10 | 1 to 10 | 1 to 10 | CC1CN(c2ccc3nc(-c4cc5cn(C)nc5cc4O)ccc3n2)CCN1 (stereo not shown) [Compound 117, 2-methyl-5-[6-(3-methylpiperazin-1-yl)-1,5-naphthyridin-2-yl]indazol-6-ol] | 1 to 10
0.1 to 1 | 0.1 to 1 | 0.1 to 1 | 0.1 to 1 | Cn1cc2cc(-c3ccc4nc(N5CCC56CCNCC6)ccc4n3)c(O)cc2n1 [Compound 164] | 0.1 to 1
0.1 to 1 | > 10 | > 10 | > 10 | Cn1cc2cc(-c3ccc4nc(N5CCC56CCCNC6)ccc4n3)c(O)cc2n1 (stereo not shown) [Compound 163] | > 10
< 0.1 | < 0.1 | < 0.1 | 0.1 to 1 | Cn1cc2cc(-c3ccc4nc(N5CC[C@H](N[C@H]6C[C@H](F)C6)C5)ccc4n3)c(O)cc2n1 [Compound 247] | 0.1 to 1
